Patent publication US9101567B2, “Suppression of cancer growth and metastasis using nordihydroguaiaretic acid derivatives with 7-hydroxystaurosporine” (The Johns Hopkins University, priority 2010, dated 2015)
Where “and” joins values, the source holds several entries; their conditions need not be identical. Identical values can stand only once.

How the values were obtained:
caspase-3 and 9 = assay: Western blotting of cleaved caspase-3 and 9 in LNCaP cells; format: cell-based, human; conditions: 17 hrs, M4N 80 μM, etoposide 10 μM, rapamycin 10 μM, UCN-01 2 μM
Procedure: (§1) The sample volumes were adjusted by the total protein amount. Protein assay was performed by Bio-Rad Protein Assay (Bio-Rad Laboratories, Inc. Hercules, Calif.). The samples were resolved by the standard SDS-polyacrylamide gel electrophoresis and transferred to nitrocellulose membrane (Amersham Biosciences, Bjorkgatan, Sweden). The membranes were blocked with skim milk, and incubated with primary antibodies at 4° C. overnight and then with secondary antibody conjugated with horse radish peroxidase at room temperature for 2 hrs. The signals were detected by western blot chemiluminescence reagent plus (New England Nuclear Life Science Products, Boston, Mass.).
(§2) The efficacy of the combination treatment of M4N with three anticancer drugs, etoposide, rapamycin, and UCN-01 to induce cell death was examined for LNCaP human prostate cancer cells with TUNEL assay. We chose these anticancer drugs trying to diversify the mechanisms in which the anticancer drugs work (43-45). […] Additionally the effect of caspase-3 and 7 inhibitor, zDEVD-fmk on the cell death induced by the combination treatment was examined (FIG. 1E).

caspase-7 [1] = assay: Western blotting of caspase-7 cleavage in LNCaP cells; format: cell-based, human; conditions: 17 hrs, M4N 80 μM, etoposide 10 μM, rapamycin 10 μM, UCN-01 2 μM
Procedure: as §1, §2

caspase-7 [2] = assay: Enzymatic assay for caspase-7 in extracts of treated LNCaP cells; format: cell-based, human; conditions: extracts of LNCaP cells treated for 13 hrs
Procedure: The enzymatic assay specific for caspase-7 was performed using a CaspSELECT caspase-7 immunoassay kit (BioVision, Mountain View, Calif.). This assay is based on the […] assay with DEVD-afc. Since DEVD-afc can be a substrate for either caspase-3 or 7, only caspase-7 is selected from cell extracts by anti-caspase-7 antibody which is coated on microtiter plates. Briefly the microtiter plates were coated with anti-caspase-7 antibody overnight at 4 C and blocked with a blocking solution for 30 minutes at room temperature. The cell extracts were applied to the microtiter plates. After washing the microtiter plates, the substrate […] was added to the plates and incubated for about three hours. The fluorescence was measured by a microtiter plate fluorescence reader Infinite 200 (Tecan, Switzerland).
as §2

[3] = system: OC24 human ovarian cancer cells; assay: OC24 ovarian cancer-bearing nude mice: survival, ascites fluid, abdominal tumors; format: in vivo, nude mice (nu/nu); conditions: for survival rate at 45 days after treatment: OC24 tumor-bearing nude mice, i.v. 1 mg M4N and/or 88.4 μg UCN-01 per shot; for Tumor Weight: abdominal tumors of individual OC24 tumor-bearing mice; for Tumor Weight / Weight of the Ascites Fluid: at the time of death; for Weight of the Ascites Fluid: individual OC24 tumor-bearing mice, data compiled at 45 days after tumor inoculation
Procedure: (§3) T-cell deficient male nude mice (nu/nu) were obtained from Charles River Laboratories (Wilmington, Mass.). […] For drug combinations (M4N/etoposide, M4N/rapamycin, and M4N/UCN-01), etoposide, rapamycin, or UCN-01 powder was further added to M4N in CPE 25/30 to make a final concentration of M4N (10 mg/ml) respectively with etoposide (4 mg/ml), rapamycin (3.75 mg/ml), or UCN-01 ([…]) in CPE 25/30 formulation. These drugs were intravenously injected into the tail vein of mice at the daily dose of 0.1 ml per mouse. Therefore dosages of each injection were 1 mg/shot (for M4N), 0.4 mg/shot (for etoposide), 0.375 mg/shot (for rapamycin), and 88.4 μg/shot (for UCN-01). The drug injections were performed once every day; beginning at day 3 until day 31 after tumor inoculation for the combination treatment with either etoposide or rapamycin and until day 25 after tumor inoculation for the combination treatment with UCN-01. After this the drugs were injected once a week for etoposide/rapamycin combination treatment and once every three days until day 35 for UCN-01 combination treatment. Protocols used in this study were approved by the Institutional Animal Care and Use Committee at the Johns Hopkins University, Department of Biology.
(§4) OC24 cells growing subconfluently were collected into the tissue culture medium without fetal bovine serum and antibiotics. The cell concentration was adjusted by the same medium. The cell solution containing 5×10^4 cells was injected into the peritoneal cavity of each nude mouse at the day 0. The drug treatment started from day 3. For the estimation of the effect of the drug treatment, the volume of ascites fluids and of abdominal tumors was measured.
Next we examined if this combination treatment could improve the anticancer efficacy of M4N in animal experiments. In this experiment we used OC24 ovarian cancer-bearing nude mice as a model system. OC24 cells are very aggressive cancers and have the ability to kill essentially all the mice when only ten thousand cancer cells are inoculated intraperitoneally into a mouse. […] All the mice without any treatments died in less than 26 days after the tumor inoculation. Meanwhile certain percentages of the mice survived in the all treatment groups (M4N alone, UCN-01 alone, or M4N/UCN-01 combination) beyond 45 days after treatment (the time of preparation of the current manuscript). The survival rate at 45 days after treatment was 33%, 20%, and 42% for M4N alone, UCN-01 alone, or M4N/UCN-01 combination group respectively.
To further evaluate the anticancer efficacy of M4N/UCN-01 combination treatment, we next measured the volume of the ascites fluid and that of abdominal tumors. The ascites fluid was collected from the peritoneal cavity at the time of death of tumor-bearing mice. Abdominal tumors are usually located in the vicinity of the area where the tumors were inoculated by the needle. […] The data was compiled at 45 days after tumor inoculation. Therefore there were still several mice who still survived from tumor burden.

[4] = Body weight change in OC24 tumor-bearing mice; format: in vivo, nude mice (nu/nu); conditions: individual mice
Procedure: as §3, §4
Once the ascites fluid starts to accumulate in the peritoneal cavity, it sometimes constitutes a significant portion of the body weight.
The increase of the body weight of deceased mice at the time of the death over the initial weight was 37.8% (SD=18.9%, N=19) while the increase of the body weight of alive mice at days after tumor inoculation over the initial weight was 9.5% (SD=7.5%, N=6). The difference of two groups is statistically significant by t-test (0.2%). […] Therefore the body weight change can be used as an indicator to estimate the volume of ascites and thus overall condition of the mice. […] The body weight increased slightly after day 26. However it hasn't reached the peak weight achieved at day 22 (30.5 g). […] The pictures show the apparent decrease of the volume of abdominal area from day 22 to day 29 through day 26. This almost certainly indicated the reduction of ascites fluid. […] The observations depicted in FIGS. 8 B and 8C indicate that the combination treatment of M4N with UCN-01 can suppress tumor burden even after the tumor size has already reached to a certain extent. Discussion

| Compound | expression of cleaved caspase-3 and 9 (caspase-3 and 9) | caspase-7 cleavage products (20 and 34 kDa) (caspase-7 [1]) | caspase-7 activation (enzymatic activity) (caspase-7 [2]) | survival rate at 45 days after treatment [3] [%] | Tumor Weight [3] | Weight of the Ascites Fluid [3] | Body weight ([4]; Day No. 0 (10-Dec)) | Body weight ([4]; Day No. 2 (12-Dec)) | Body weight ([4]; Day No. 3 (13-Dec)) | Body weight ([4]; Day No. 8 (18-Dec)) | Body weight ([4]; Day No. 12 (22-Dec)) | Body weight ([4]; Day No. 22 (1-Jan)) | Body weight ([4]; Day No. 26 (5-Jan)) | Body weight ([4]; Day No. 29 (8-Jan)) | Body weight ([4]; Day No. 32 (11-Jan)) | Body weight ([4]; Day No. 33 (12-Jan)) | Body weight ([4]; Day No. 34 (13-Jan)) | Body weight ([4]; Day No. 35 (14-Jan)) | Body weight ([4]; Day No. 36 (15-Jan)) | Body weight ([4]; Day No. 37 (16-Jan)) | other results |
| --- | --- | --- | --- | --- | --- | --- | --- | --- | --- | --- | --- | --- | --- | --- | --- | --- | --- | --- | --- | --- | --- |
| COc1ccc(C[C@@H](C)[C@@H](C)Cc2ccc(OC)c(OC)c2)cc1OC [M4N, Tetra-O-methyl nordihyroguaiaretic acid] | didn't induce the cleavage | small amount | only a small amount | 33 | 101.3 mg and <100 mg and 360.5 mg and 69 mg | 4.4 g and Living (2×) and 7.8 g and 5.8 g and 16.1 g | 24.1 grams and 22.9 grams and 23.5 grams and 22.3 grams and 20 grams and 21.4 grams | 22.3 grams and 20.8 grams and 22.9 grams and 21.5 grams and 19.1 grams and 20.9 grams | 22.8 grams and 21.2 grams and 23.4 grams and 20.9 grams and 20.2 grams and 20.5 grams | 30.1 grams and 25.8 (31st Dec) grams | 23.9 grams and 21.9 grams and 27.7 grams (2×) and 29.8 (Euthanized on 1st Jan) grams | 23.2 grams and 21.5 grams and 28 grams and 38.8 grams | 24.1 grams and 22.5 grams and 28.1 grams | 26.2 grams and 22.7 grams | 25.5 grams and 22.5 grams | 25.3 grams and 23.1 grams | 25.3 grams and 22.9 grams | 24.8 grams and 22 grams | 25.7 grams and 22.4 grams | 25.8 grams and 22.6 grams | Body weight ([4]; Day No. 38 (17-Jan)): 25.9 grams and 22.9 grams; Body weight ([4]; Day No. 39 (18-Jan)): 26.3 grams and 22.7 grams; Body weight ([4]; Day No. 40 (19-Jan)): 26.4 grams and 22.9 grams; Body weight ([4]; Day No. 41 (20-Jan)): 26.4 grams and 23.1 grams; Body weight ([4]; Day No. 42 (21-Jan)): 25.3 grams and 23.2 grams; Body weight ([4]; column head Day No. 25 (4-Jan)): 37.5 grams; Body weight ([4]; column head Day No. 28 (7-Jan)): 27.9 grams |
| CN[C@@H]1C[C@H]2O[C@@](C)([C@@H]1OC)n1c3ccccc3c3c4c(c5c6ccccc6n2c5c31)C(=O)N[C@H]4O [UCN-01, 7-hydroxystaurosporine] | great expression | great amount | to some extent | 20 | No Tumor (2×) and 360.5 mg and 87 mg | 7.4 g and 15 g and Living and 14.3 g and 2.9 g | 22.8 grams and 22.1 grams and 23.4 grams and 21.6 grams and 19.6 grams and 20.6 grams | 22.6 grams (2×) and 18.3 grams and 20.8 grams | 23.4 grams and 21.8 grams and 35.7 grams and 30.5 grams and 22.9 grams and 21.9 Died due to injection & not the tumor (28th Dec) grams | 39.5 grams and 35.9 grams and 26.2 grams | 24.4 grams and 30.7 grams and 38.4 (6th Jan) grams and 27.3 grams | 24.8 grams and 29.5 grams | 25.5 grams | 27.9 grams | 27.6 grams | 27.4 grams | 27.5 grams | 26.5 grams | 27.2 grams | 27.3 grams | Body weight ([4]; Day No. 38 (17-Jan)): 27.1 grams; Body weight ([4]; Day No. 39 (18-Jan)): 27.4 grams; Body weight ([4]; Day No. 40 (19-Jan)): 27.4 grams; Body weight ([4]; Day No. 41 (20-Jan)): 27.8 grams; Body weight ([4]; Day No. 42 (21-Jan)): 26.7 grams; Body weight ([4]; column head Day No. 18 (28-Dec)): 22.5 grams |
